{"source": "PubChem BioAssay (NCI)", "experiment_in_all_cases": "NCI anticancer screen, dose series, 48 h", "key": {"RPMI-8226 leukemia": {"system": "RPMI-8226 leukemia"}, "SR leukemia": {"system": "SR leukemia"}, "SK-OV-3 ovarian": {"system": "SK-OV-3 ovarian"}, "SNB-75 CNS": {"system": "SNB-75 CNS"}, "HCT-15 colon": {"system": "HCT-15 colon"}, "M14 melanoma": {"system": "M14 melanoma"}, "LOX IMVI melanoma": {"system": "LOX IMVI melanoma"}, "UO-31 renal": {"system": "UO-31 renal"}, "BT-549 breast": {"system": "BT-549 breast"}, "MCF7 breast": {"system": "MCF7 breast"}, "RXF 393 renal": {"system": "RXF 393 renal"}, "NCI-H23 lung": {"system": "NCI-H23 lung"}, "SK-MEL-28 melanoma": {"system": "SK-MEL-28 melanoma"}, "SN12C renal": {"system": "SN12C renal"}, "SK-MEL-5 melanoma": {"system": "SK-MEL-5 melanoma"}, "M19-MEL melanoma": {"system": "M19-MEL melanoma"}}, "note": "Several values for one entry are separate records, joined by “and”; a condition that tells them apart may be missing. Equal values may be shown once.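 Compound exposure: 48 hours, 5 concentrations, 96-well plates. At the GI50, growth is halved. TGI denotes the concentration required for complete inhibition of growth.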"}
{"smiles": "CN1C(=O)CC2(C)c3cc(O)ccc3N(C)C12", "note": "(stereo not drawn)", "values": [{"measurement": "GI50", "setting": "RPMI-8226 leukemia", "value": 20.3, "unit": "µM"}, {"measurement": "TGI", "setting": "RPMI-8226 leukemia", "value": "64.8 µM and 67.3 µM"}, {"measurement": "GI50", "setting": "SR leukemia", "value": 13.9, "unit": "µM"}, {"measurement": "TGI", "setting": "SR leukemia", "value": "45.2 µM and 51.5 µM"}, {"measurement": "GI50", "setting": "SK-OV-3 ovarian", "value": "> 75", "unit": "µM"}, {"measurement": "TGI", "setting": "SK-OV-3 ovarian", "value": "> 100", "unit": "µM"}, {"measurement": "GI50", "setting": "SNB-75 CNS", "value": "> 75", "unit": "µM"}, {"measurement": "TGI", "setting": "SNB-75 CNS", "value": "> 75 µM and 68.3 µM"}, {"measurement": "GI50", "setting": "HCT-15 colon", "value": 14.3, "unit": "µM"}, {"measurement": "TGI", "setting": "HCT-15 colon", "value": "25.9 µM and 41.9 µM"}, {"measurement": "TGI", "setting": "M14 melanoma", "value": 44.6, "unit": "µM"}, {"measurement": "GI50", "setting": "LOX IMVI melanoma", "value": 14.8, "unit": "µM"}, {"measurement": "TGI", "setting": "LOX IMVI melanoma", "value": "38.9 µM and 32.6 µM"}, {"measurement": "TGI", "setting": "UO-31 renal", "value": "> 90.9", "unit": "µM"}, {"measurement": "GI50", "setting": "BT-549 breast", "value": 30.3, "unit": "µM"}, {"measurement": "TGI", "setting": "BT-549 breast", "value": "75 µM and 30.8 µM"}, {"measurement": "GI50", "setting": "MCF7 breast", "value": 14, "unit": "µM"}, {"measurement": "TGI", "setting": "MCF7 breast", "value": "27.8 µM and 35.8 µM"}, {"measurement": "GI50", "setting": "RXF 393 renal", "value": 48.4, "unit": "µM"}, {"measurement": "TGI", "setting": "RXF 393 renal", "value": "75 µM and 66.5 µM"}, {"measurement": "GI50", "setting": "NCI-H23 lung", "value": 25.7, "unit": "µM"}, {"measurement": "TGI", "setting": "NCI-H23 lung", "value": "75 µM and 61.9 µM"}, {"measurement": "GI50", "setting": "SK-MEL-28 melanoma", "value": 11.8, "unit": "µM"}, {"measurement": "TGI", "setting": "SK-MEL-28 melanoma", "value": "21.9 µM and > 79.2 µM"}, {"measurement": "TGI", "setting": "SN12C renal", "value": "29.6 µM and 23.3 µM"}, {"measurement": "GI50", "setting": "SK-MEL-5 melanoma", "value": 54.1, "unit": "µM"}, {"measurement": "TGI", "setting": "SK-MEL-5 melanoma", "value": "75 µM and 50.5 µM"}, {"measurement": "TGI", "setting": "M19-MEL melanoma", "value": 46.2, "unit": "µM"}]}
